From patent EP1077967B1, “BIPHENYL OXO-ACETIC ACIDS USEFUL IN THE TREATMENT OF INSULIN RESISTANCE AND HYPERGLYCEMIA” (Wyeth, priority 1998, dated 1999)
Read-outs that look alike come from different tables or passages of the source.

How the values were obtained:
[1] = test system: rat hepatic microsomal PTPases; assay: Inhibition of tri-phosphorylated insulin receptor dodecaphosphopeptide dephosphorylation by rat hepatic PTPases (malachite green); assay type: biochemical; conditions: rat liver microsomal fraction; for % Change from Control: PTPase activity, compound at 50 µM; for IC50: % Change from Control
Human recombinant PTP1B = biological target: T1, Human recombinant PTP1B (Homo sapiens, UniProt P18031); assay: Inhibition of tri-phosphorylated insulin receptor dodecaphosphopeptide dephosphorylation by hPTP1B (malachite green); assay type: biochemical; conditions: recombinant PTP1B, dodecaphosphopeptide substrate
T1 construct: made in house
T1 sequence (P18031 1-435): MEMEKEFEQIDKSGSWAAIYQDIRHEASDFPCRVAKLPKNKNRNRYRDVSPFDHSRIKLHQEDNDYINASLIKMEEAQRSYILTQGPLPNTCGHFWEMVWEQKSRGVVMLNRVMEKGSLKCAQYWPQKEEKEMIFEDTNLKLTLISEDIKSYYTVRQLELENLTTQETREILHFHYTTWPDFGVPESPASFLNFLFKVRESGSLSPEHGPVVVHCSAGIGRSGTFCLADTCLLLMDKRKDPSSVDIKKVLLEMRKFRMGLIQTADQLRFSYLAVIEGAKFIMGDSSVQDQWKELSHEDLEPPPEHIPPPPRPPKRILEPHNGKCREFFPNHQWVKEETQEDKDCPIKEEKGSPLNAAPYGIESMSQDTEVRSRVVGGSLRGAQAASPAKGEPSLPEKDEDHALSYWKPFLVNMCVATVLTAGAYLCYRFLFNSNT

diabetic (ob/ob) mice = assay: Blood glucose lowering in diabetic (ob/ob) mice; assay type: in vivo; conditions: Mus musculus, po, cells marked a = no significant activity (p<0.05) at this dose
[2] = read-out: % Change Insulin from Vehicle
[3] = plasma glucose, read-out: % Change Glucose from Vehicle

Row | SMILES | % Change from Control [1] | IC50 (Human recombinant PTP1B) | change in vivo at 100 mg/kg (diabetic (ob/ob) mice; [2]) | change in vivo at 100 mg/kg (diabetic (ob/ob) mice; [3]) | IC50 [1] | change in vivo at 25 mg/kg (diabetic (ob/ob) mice; [2]) | change in vivo at 25 mg/kg (diabetic (ob/ob) mice; [3])
1 | C[C@@H](Oc1ccc(-c2ccc(-c3c(Cc4ccccc4)oc4ccccc34)cc2)cc1)C(=O)O [Example 17, (2R)-2-[4'-(2-Benzyl-benzofuran-3-yl)-biphenyl-4-yloxy]-propionic acid] | -63% | 1320 nM | -94.4% | 13.7% | – | – | –
2 | O=C(O)[C@H](Cc1ccccc1)Oc1ccc(-c2ccc(-c3c(Cc4ccccc4)oc4ccccc34)cc2)cc1 [Example 1, (2S)-2-[4'-(2-Benzyl-benzofuran-3-yl)-biphenyl-4-yloxy]-3-phenyl-propionic acid] | -53% | 322 nM | 17% | -40.3% | – | – | –
3 | COc1ccc(-c2cc(-c3ccc(-c4c(Cc5ccccc5)sc5ccccc45)cc3)cc(-c3ccc(OC)cc3)c2OCC(=O)O)cc1 [Example 2] | – | 25 nM | – | – | 28400 nM | 11.2% | -25.5%
4 | CCCCc1sc2ccccc2c1-c1ccc(-c2ccc(OC(Cc3ccccc3)C(=O)O)cc2)cc1 (stereo not shown) [Example 12, 2-[4'-(2-Butyl-benzo[b]thiopen-3-yl)-biphenyl-4-yloxy]-3-phenyl-propionic acid] | -50% | 176 nM | -15.8% | -27.5% | – | – | –
5 | O=C(O)C(Cc1ccccc1)Oc1ccc(-c2ccc(-c3c(Cc4ccccc4)oc4ccccc34)cc2)cc1 (stereo not shown) [Example 11, 2-[4'-(2-Benzyl-benzofuran-3-yl)-biphenyl-4-yloxy]-3-phenyl-propionic acid] | -61% | 270 nM | -44.9% | -40.4% | – | – | –
6 | CCCCc1oc2ccccc2c1-c1ccc(-c2ccc(OC(Cc3ccccc3)C(=O)O)cc2)cc1 (stereo not shown) [Example 10, 2-[4'-(2-Butyl-benzofuran-3-yl)-biphenyl-4-yloxy]-3-phenyl-propionic acid] | -72% | 440 nM | -51.9% | -34.2% | – | – | –
7 | COc1ccc(-c2cc(-c3ccc(-c4c(Cc5ccccc5)sc5ccccc45)cc3)cc(Br)c2OCC(=O)O)cc1 [Example 3] | – | 29 nM | – | – | 29900 nM | 23.5% | -29.9%
